Data taken from patent publication US10973823B2, “Anti-cancer composition consisting of halofuginone and sesquiterpene lactone compounds of artemisia apiacea and use thereof” (Hong Kong Baptist University, priority 2016, dated 2021).

Columns and labels:
Details in all cases: alone or combined, 24 hours
[1] = system: colon cancer cell HCT-116; assay: MTT assay, colon cancer cell HCT-116; type: cell-based, Human
Procedure: (§1) Human colon cancer cell line HCT-116 was seeded on a 96-well plate, with 100 μl of cell suspension in each well. The culture medium was DMEM supplemented with 10% FBS and 2 mM glutamate. […] 24 hours after adding the compound, the cell survival rate was assessed using the MTT assay, and the combination index (CI) of the combined pharmaceutical of HF and ATS was calculated using the Calcusyn software. Tumor cell survival rate=the OD value of the experimental group/the OD value of the control group×100%

liver cancer cell HepG2 = assay: MTT assay, liver cancer cell HepG2; type: cell-based
Procedure: as §1, with “Liver” for “Human colon”, “HepG2” for “HCT-116”, “software.” for “software. Tumor cell survival rate=the OD value of the experimental group/the OD value of the control group×100%”

breast cancer cell MCF-7 = assay: MTT assay, breast cancer cell MCF-7; type: cell-based
Procedure: as §1, with “Breast” for “Human colon”, “MCF-7” for “HCT-116”, “software.” for “software. Tumor cell survival rate=the OD value of the experimental group/the OD value of the control group×100%”

[2] = system: gastric cancer cell MGC803; assay: MTT assay, gastric cancer cell MGC803; type: cell-based
Procedure: as §1, with “Gastric” for “Human colon”, “MGC803” for “HCT-116”, “software.” for “software. Tumor cell survival rate=the OD value of the experimental group/the OD value of the control group×100%”

melanoma cell A375 = assay: MTT assay, melanoma cell A375; type: cell-based
Procedure: as §1, with “Melanoma” for “Human colon cancer”, “A375” for “HCT-116”, “software.” for “software. Tumor cell survival rate=the OD value of the experimental group/the OD value of the control group×100%”

[3] = HF 10 nM, ATS/DAT/ASU/ATM 160 μM
[4] = HF 20 nM, ATS/DAT/ASU/ATM 320 μM
[5] = HF 40 nM, ATS/DAT/ASU/ATM 640 μM

Row | Compound | Cell death rate (%) [1, 3] | Cell death rate (%) [1, 4] | Cell death rate (%) [1, 5] | Cell death rate (%) (liver cancer cell HepG2; HF 10 nM, lactone 160 μM) | Cell death rate (%) (liver cancer cell HepG2; HF 20 nM, lactone 320 μM) | Cell death rate (%) (liver cancer cell HepG2; HF 40 nM, lactone 640 μM) | Cell death rate (%) (breast cancer cell MCF-7; HF 10 nM, lactone 160 μM) | Cell death rate (%) (breast cancer cell MCF-7; HF 20 nM, lactone 320 μM) | Cell death rate (%) (breast cancer cell MCF-7; HF 40 nM, lactone 640 μM) | Cell death rate (%) ([2]; HF 10 nM, lactone 160 μM) | Cell death rate (%) ([2]; HF 20 nM, lactone 320 μM) | Cell death rate (%) ([2]; HF 40 nM, lactone 640 μM) | Cell death rate (%) (melanoma cell A375; HF 10 nM, lactone 160 μM) | Cell death rate (%) (melanoma cell A375; HF 20 nM, lactone 320 μM) | Cell death rate (%) (melanoma cell A375; HF 40 nM, lactone 640 μM)
1 | C[C@@H]1CC[C@H]2[C@@H](C)C(=O)O[C@@H]3O[C@@]4(C)CC[C@@H]1[C@]32OO4 [ATS, Artemisinin] | 35.89 ± 3.91% | 48.31 ± 3.61% | 54.42 ± 2.44% | 0.90 ± 0.95% | 1.60 ± 0.08% | 6.40 ± 2.71% | 9.50 ± 0.77% | 16.50 ± 1.47% | 33.90 ± 2.00% | 1.00 ± 3.31% | 4.60 ± 5.51% | 40.00 ± 3.18% | 16.50 ± 4.30% | 26.30 ± 1.33% | 46.50 ± 3.57%
2 | C[C@H]1[C@@H](O)O[C@@H]2O[C@@]3(C)CC[C@H]4[C@H](C)CC[C@@H]1[C@@]24OO3 [DAT, dihydroartemisinin] | 36.80 ± 3.33% | 47.32 ± 3.65% | 55.57 ± 2.43% | 0.81 ± 0.83% | 1.72 ± 0.15% | 6.59 ± 2.58% | 8.81 ± 0.83% | 16.32 ± 1.65% | 32.59 ± 2.43% | 1.81 ± 0.83% | 5.32 ± 1.65% | 42.59 ± 2.43% | 16.81 ± 5.83% | 26.35 ± 1.64% | 42.55 ± 4.42%
3 | O=C(CC1NCCCC1O)Cn1cnc2cc(Br)c(Cl)cc2c1=O (centres unmarked) [HF, Halofuginone] | 19.41 ± 4.03% | 33.06 ± 3.32% | 59.27 ± 0.41% | 0.70 ± 3.11% | 1.00 ± 2.06% | 4.00 ± 2.21% | 2.00 ± 1.28% | 3.00 ± 0.55% | 9.10 ± 1.79% | 8.10 ± 2.77% | 20.00 ± 4.18% | 29.00 ± 3.31% | 5.70 ± 5.44% | 17.70 ± 2.82% | 35.70 ± 4.76%
4 | CO[C@H]1O[C@@H]2O[C@@]3(C)CC[C@H]4[C@H](C)CC[C@@H]([C@H]1C)[C@@]24OO3 [ATM, artemether] | 33.17 ± 4.46% | 46.32 ± 3.45% | 54.50 ± 2.50% | – | – | – | – | – | – | – | – | – | – | – | –
5 | C[C@H]1[C@H](OC(=O)CCC(=O)O)O[C@@H]2O[C@@]3(C)CC[C@H]4[C@H](C)CC[C@@H]1[C@@]24OO3 [ASU, artesunate] | 35.15 ± 3.45% | 48.31 ± 3.69% | 53.52 ± 2.46% | 0.95 ± 0.72% | 1.86 ± 0.09% | 6.57 ± 2.06% | 9.15 ± 0.92% | 16.31 ± 1.69% | 33.57 ± 2.56% | 1.15 ± 0.92% | 5.31 ± 1.69% | 43.57 ± 2.56% | 16.15 ± 4.90% | – | 47.59 ± 3.93%
